Tests used:
[1] = test system: primary cocultures of central neurons and oligodendrocytes; assay: In vitro MS (myelination) model; format: cell-based, rat
Protocol: A reproducible in vitro myelination model based on primary cocultures of central neurons and oligodendrocytes culturing in 96-well plate is used and adapted to high throughput screening.
Neurons/oligodendrocytes were cultured as previously described by Charles et al., 2000. PNAS 97 7585-7590.
Briefly, pregnant Wistar female rats of 17 days gestation were killed by cervical dislocation (Janvier Labs, France) and the foetuses removed from the uterus. The forebrains were removed and placed in ice-cold medium of Leibovitz (L15; Pan Biotech, Germany) containing 2% of Penicillin-Streptomycin (Batch 1451013, PanBiotech) and 1% of bovine serum albumin (BSA) (Batch K180713, Pan Biotech). Cortexes were dissociated by trypsinisation for 20 min at 37° C., with Trypsin EDTA 1× (Batch 7310713, PanBiotech). The reaction was stopped by the addition of Dulbecco's modified Eagle's medium (DMEM) (Batch 9710913, PanBiotech) containing DNAase I grade II at 0.1 mg/mL (Batch H131108, PanBiotech) and 10% of foetal calf serum (Batch 41Q7218K, Invitrogen, France). Cells were then mechanically dissociated by 3 passages through a 10 mL pipette. Cells were centrifuged at 180×g for 10 min at 4° C. temperature on a layer of BSA (3.5%) in L15 medium. The supernatant was discarded and cells of the pellet were re-suspended in DMEM containing 10% of FCS. […] The supernatant was discarded and cells of pellet were re-suspended in a culture medium consisting of Neurobasal (Batch 1625353, Invitrogen) supplemented with 2% of B27 (Batch 1618508, Invitrogen), 2 mM of L-glutamine (Batch 6620314, PanBiotech), 2% of PS solution, 1% of foetal calf serum (FCS) and 10 ng/mL of platelet-derived growth factor (PDGF-AA) (Batch H131205, PanBiotech).
The plates were maintained at 37° C. in a humidified incubator, in an atmosphere of air (95%)-CO2 (5%). Half of the medium was changed every 2 days with fresh medium in presence or absence of compound.
Plate 1 for Day 12 (A2B5) and plate 2 for Day 18 (MAG evaluation) • Control (vehicle) • Compound CR777 of example 1 (1 pmol/L) • Compound CR777 of example 1 (10 pmol/L) • Compound CR777 of example 1 (100 pmol/L) • Compound CR777 of example 1 (1 nmol/L) • Compound CR777 of example 1 (10 nmol/L) • Compound CR777 of example 1 (100 nmol/L) • Compound CR777 of example 1 (1 μmol/L) • Compound CR777 of example 1 (10 μmol/L)
The cells were then permeabilized and non-specific sites were blocked with a solution of phosphate buffered saline (Batch 3010914, PanBiotech) containing 0.1% of saponin (Batch BCBJ8417V, Sigma) and 1% FCS for 15 min at room temperature.
On day 12, cells were incubated with Monoclonal Anti-A2B5 conjugated Alexa Fluor® 488 produced in mouse (Batch 2281669, Millipore, France) at dilution of 1/200 in PBS containing 1% FCS, 0.1% saponin, and with anti-MAP-2 antibody produced in chicken (Batch GR180541-3, AbCam; United Kingdom) at dilution of 1/1000 in PBS containing 1% FCS, 0.1% saponin for 2 h at room temperature. […]
The immunolabeled cultures were automatically examined with ImageXpress (Molecular Devices) equipped with a LED at ×20 magnification. […] Number of A2B5 positive cells and number of MAG positive cells were automatically analyzed by using Custom module editor (Molecular Devices). […] All values were expressed as mean+/−SEM (s.e.mean) of the 6 wells. […]

[2] = test system: Human MRC-5 cell line derived from normal lung tissue; assay: Cytotoxicity test, cell growth inhibition by MTS assay; format: cell-based; conditions: MRC-5, 72 h incubation, 8 concentrations
Protocol: (§1) Human MRC-5 cell line derived from normal lung tissue and human HCT-116 colorectal carcinoma were obtained from the American Type Culture Collection (ATCC, Rockville, Md.). Primary Human Umbilical Vein Endothelial Cells (HUVEC) isolated from the vein of the umbilical cord were obtained from Promocell (Germany). Cell lines were cultured according to the supplier's instructions. Human HCT-116 cells were grown in Gibco McCoy's 5A supplemented with 10% fetal calf serum (FCS) and 1% glutamine. Human MRC-5 cells were grown in DMEM supplemented with 10% fetal calf serum (FCS) and 1% glutamine. HUVECs were grown in Endothelial Cell Growth Medium 2 which is low-serum (2% V/V) media optimized for the cultivation of endothelial cells from large blood vessels.
(§2) Cells were counted using a Vi-cell XR (Beckman Coulter) and their viability assessed by 0.25% trypan blue dye exclusion. They were tested for the presence of mycoplasma before experiments with the Mycoplasma PCR Detection Kit (Applied Biological Materials Inc., Canada) in accordance with the manufacturer instructions and only mycoplasma-free cells were used for further investigations.
(§3) Cell lines were maintained at 37° C. in a humidified atmosphere containing 5% CO2. Cell growth inhibition was determined by an MTS assay according to the manufacturer's instructions (Promega, Madison, Wis., USA). […] After 24 h of culture, the cells were treated with the compound CR777 of example 1 at 8 different final concentrations. Each concentration was obtained from serial dilutions in culture medium starting from the stock solution. Control cells were treated with the vehicle. Experiments were performed in triplicate.
(§4) After 72 h of incubation, 20 μL of CellTiter 96® AQueous One Solution Reagent was added for 2 h before recording absorbance at 490 nm with a spectrophotometric plate reader. The dose-response curves were plotted with Graph Prism software and the IC50 values were calculated using the Graph Prism software from polynomial curves (four or five-parameter logistic equations).

[3] = test system: human HCT-116 colorectal carcinoma; assay: as above; format: cell-based; conditions: HCT-116, 72 h incubation, 8 concentrations
Protocol: as §1, §2, §3, §4

[4] = test system: Primary Human Umbilical Vein Endothelial Cells (HUVEC); assay: as above; format: cell-based; conditions: 72 h incubation, 8 concentrations
Protocol: as §1, §2, §3, §4

[5] = 18 days of treatment, significant from 1 pmol/L up to 1 μmol/L, not at 10 μM

## CC1=C(CO)C(=O)O[C@@H]([C@@H](C)[C@H]2CCC3C4C[C@H](SC[C@H](NC(=O)CC[C@@H](N)C(=O)O)C(=O)NCC(=O)O)[C@]5(O)[C@@H](O)C=CC(=O)[C@]5(C)C4CC[C@@]32C)C1 (some centres unmarked) [CR777]
[1]; 12 days treatment, 1 pmol/L to 10 μmol/L
  OPC (precursor cells of oligodendrocytes) number, A2B5 positive cells: did not show any significant increase
[1]; 12 days treatment, at the highest doses
  total number of OPCs: decrease of the total number of OPCs
[1]; 18 days of treatment, all doses
  maximal effect on MAG, increase vs control: ~60%
[1]; [5]
  myelination of neurons by OL (area of MAG expression): significantly improved
  number of MAG positive cells (OL): able to increase the number of MAG positive cells
[2]
  toxicity (cell growth inhibition, MTS): does not show any toxicity
[3]
  toxicity (cell growth inhibition, MTS): does not show any toxicity
[4]
  toxicity (cell growth inhibition, MTS): does not show any toxicity
